Three compounds from the kinase profiling compilation of Christmann-Franck et al. (2016) can be followed below.

The structures appear in SMILES notation.

One experiment has as its target PTK2 (human) (UniProt Q05397). Put plainly: KINOMEscan competition binding. As to conditions: compound 10.0 µM.
The subject of experiment [1] is EGFR (human), P00533 [752-759 del]. Put plainly: KINOMEscan competition binding. As to conditions: compound 10.0 µM.
A further experiment addresses TNK1 (human) (UniProt Q13470). Put plainly: KINOMEscan competition binding. As to conditions: compound 10.0 µM.
For a further experiment, the target named is PTK2B (human) (UniProt Q14289). The experiment in a line: KINOMEscan competition binding. As to conditions: compound 10.0 µM.
In a further experiment the target is PLK4 (human) (UniProt O00444). Put plainly: KINOMEscan competition binding. As to conditions: compound 10.0 µM.
The target in another experiment is DAPK2 (human) (UniProt Q9UIK4). Put plainly: KINOMEscan competition binding. As to conditions: compound 10.0 µM.
For experiment [2], the system named is EGFR (human), P00533 [P753S; 747-752 del]. The experiment in a line: KINOMEscan competition binding. As to conditions: compound 10.0 µM.
The target of a further experiment is PLK1 (human) (UniProt P53350). The experiment in a line: KINOMEscan competition binding. As to conditions: compound 10.0 µM.
Experiment [3] addresses TTK (human) (UniProt P33981). The experiment in a line: KINOMEscan competition binding. As to conditions: for kinase still bound, per cent of control: compound 10.0 µM.
Another experiment has as its target GAK (human) (UniProt O14976). The experiment in a line: KINOMEscan competition binding. As to conditions: compound 10.0 µM.
The subject of experiment [4] is EGFR (human), P00533 [747-751 del / S ins]. The experiment in a line: KINOMEscan competition binding. As to conditions: compound 10.0 µM.
The target of a further experiment is MYLK (human) (UniProt Q15746). Put plainly: KINOMEscan competition binding. As to conditions: compound 10.0 µM.
Experiment [5] relates to EGFR (human), P00533 [A750P; 747-749 del]. Put plainly: KINOMEscan competition binding. As to conditions: compound 10.0 µM.
Experiment [6] relates to EGFR (human), P00533 [G719C; 746-750 del]. The experiment in a line: KINOMEscan competition binding. As to conditions: compound 10.0 µM.
A further experiment concerns the target STK33 (human) (UniProt Q9BYT3). Put plainly: KINOMEscan competition binding. As to conditions: compound 10.0 µM.
Another experiment addresses PLK3 (human) (UniProt Q9H4B4). The experiment in a line: KINOMEscan competition binding. As to conditions: compound 10.0 µM.
Experiment [7] has as its target TTK (human) (UniProt P33981). The experiment in a line: SelectScreen, TR FRET. (In general: In TR-FRET formats the signal depends on donor and acceptor labels being close together.)
A further experiment concerns the target DCLK2 (human) (UniProt Q8N568). Put plainly: KINOMEscan competition binding. As to conditions: compound 10.0 µM.
The next experiment addresses PRKD1 (human) (UniProt Q15139). The experiment in a line: KINOMEscan competition binding. As to conditions: compound 10.0 µM.
The next experiment concerns the target CHEK1 (human) (UniProt O14757). The experiment in a line: KINOMEscan competition binding. As to conditions: compound 10.0 µM.
The next experiment deals with RPS6KA1 KD2 (human) (UniProt Q15418). Put plainly: KINOMEscan competition binding. As to conditions: compound 10.0 µM.
Another experiment has as its target RPS6KA2 KD2 (human) (UniProt Q15349). The experiment in a line: KINOMEscan competition binding. As to conditions: compound 10.0 µM.
The target of a further experiment is RPS6KA4 KD2 (human) (UniProt O75676). The experiment in a line: KINOMEscan competition binding. As to conditions: compound 10.0 µM.
In experiment [8] the test system is EIF2AK4 KD2 (human), Q9P2K8 [S808G]. The experiment in a line: KINOMEscan competition binding. As to conditions: compound 10.0 µM.
For the next experiment, the target named is DCLK1 (human) (UniProt O15075). Put plainly: KINOMEscan competition binding. As to conditions: compound 10.0 µM.
The next experiment has as its target PRKD2 (human) (UniProt Q9BZL6). Put plainly: KINOMEscan competition binding. As to conditions: compound 10.0 µM.
A further experiment deals with RPS6KA6 KD2 (human) (UniProt Q9UK32). The experiment in a line: KINOMEscan competition binding. As to conditions: compound 10.0 µM.
The target in a further experiment is PRKD3 (human) (UniProt O94806). Put plainly: KINOMEscan competition binding. As to conditions: compound 10.0 µM.
Another experiment deals with ULK1 (human) (UniProt O75385). Put plainly: KINOMEscan competition binding. As to conditions: compound 10.0 µM.
A further experiment addresses CAMKK2 (human) (UniProt Q96RR4). The experiment in a line: KINOMEscan competition binding. As to conditions: compound 10.0 µM.
In another experiment the target is ULK2 (human) (UniProt Q8IYT8). The experiment in a line: KINOMEscan competition binding. As to conditions: compound 10.0 µM.
Another experiment concerns the target MINK1 (human) (UniProt Q8N4C8). The experiment in a line: KINOMEscan competition binding. As to conditions: compound 10.0 µM.
Another experiment addresses FER (human) (UniProt P16591). The experiment in a line: KINOMEscan competition binding. As to conditions: compound 10.0 µM.
In a further experiment the target is INSRR (human) (UniProt P14616). The experiment in a line: KINOMEscan competition binding. As to conditions: compound 10.0 µM.
For the next experiment, the target named is SLK (human) (UniProt Q9H2G2). The experiment in a line: KINOMEscan competition binding. As to conditions: compound 10.0 µM.
For another experiment, the target named is ALK (human) (UniProt Q9UM73). Put plainly: KINOMEscan competition binding. As to conditions: compound 10.0 µM.

STK33 (human), sequence (Q9BYT3 whole entry, looked up): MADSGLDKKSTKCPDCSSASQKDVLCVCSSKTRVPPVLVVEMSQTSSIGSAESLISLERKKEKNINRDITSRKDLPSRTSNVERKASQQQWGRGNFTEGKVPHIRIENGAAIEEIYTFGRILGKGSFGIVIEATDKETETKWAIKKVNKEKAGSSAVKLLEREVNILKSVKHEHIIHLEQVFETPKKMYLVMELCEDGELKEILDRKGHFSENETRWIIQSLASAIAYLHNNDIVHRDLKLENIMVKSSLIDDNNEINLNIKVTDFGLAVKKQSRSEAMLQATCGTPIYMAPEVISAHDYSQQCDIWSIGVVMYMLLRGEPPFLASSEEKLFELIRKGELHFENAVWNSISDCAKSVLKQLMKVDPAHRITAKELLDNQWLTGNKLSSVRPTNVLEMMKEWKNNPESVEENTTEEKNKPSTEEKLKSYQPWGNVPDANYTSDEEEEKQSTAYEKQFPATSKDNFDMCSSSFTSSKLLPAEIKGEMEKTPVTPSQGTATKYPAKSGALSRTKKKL
MYLK (human), sequence (Q15746 whole entry, looked up): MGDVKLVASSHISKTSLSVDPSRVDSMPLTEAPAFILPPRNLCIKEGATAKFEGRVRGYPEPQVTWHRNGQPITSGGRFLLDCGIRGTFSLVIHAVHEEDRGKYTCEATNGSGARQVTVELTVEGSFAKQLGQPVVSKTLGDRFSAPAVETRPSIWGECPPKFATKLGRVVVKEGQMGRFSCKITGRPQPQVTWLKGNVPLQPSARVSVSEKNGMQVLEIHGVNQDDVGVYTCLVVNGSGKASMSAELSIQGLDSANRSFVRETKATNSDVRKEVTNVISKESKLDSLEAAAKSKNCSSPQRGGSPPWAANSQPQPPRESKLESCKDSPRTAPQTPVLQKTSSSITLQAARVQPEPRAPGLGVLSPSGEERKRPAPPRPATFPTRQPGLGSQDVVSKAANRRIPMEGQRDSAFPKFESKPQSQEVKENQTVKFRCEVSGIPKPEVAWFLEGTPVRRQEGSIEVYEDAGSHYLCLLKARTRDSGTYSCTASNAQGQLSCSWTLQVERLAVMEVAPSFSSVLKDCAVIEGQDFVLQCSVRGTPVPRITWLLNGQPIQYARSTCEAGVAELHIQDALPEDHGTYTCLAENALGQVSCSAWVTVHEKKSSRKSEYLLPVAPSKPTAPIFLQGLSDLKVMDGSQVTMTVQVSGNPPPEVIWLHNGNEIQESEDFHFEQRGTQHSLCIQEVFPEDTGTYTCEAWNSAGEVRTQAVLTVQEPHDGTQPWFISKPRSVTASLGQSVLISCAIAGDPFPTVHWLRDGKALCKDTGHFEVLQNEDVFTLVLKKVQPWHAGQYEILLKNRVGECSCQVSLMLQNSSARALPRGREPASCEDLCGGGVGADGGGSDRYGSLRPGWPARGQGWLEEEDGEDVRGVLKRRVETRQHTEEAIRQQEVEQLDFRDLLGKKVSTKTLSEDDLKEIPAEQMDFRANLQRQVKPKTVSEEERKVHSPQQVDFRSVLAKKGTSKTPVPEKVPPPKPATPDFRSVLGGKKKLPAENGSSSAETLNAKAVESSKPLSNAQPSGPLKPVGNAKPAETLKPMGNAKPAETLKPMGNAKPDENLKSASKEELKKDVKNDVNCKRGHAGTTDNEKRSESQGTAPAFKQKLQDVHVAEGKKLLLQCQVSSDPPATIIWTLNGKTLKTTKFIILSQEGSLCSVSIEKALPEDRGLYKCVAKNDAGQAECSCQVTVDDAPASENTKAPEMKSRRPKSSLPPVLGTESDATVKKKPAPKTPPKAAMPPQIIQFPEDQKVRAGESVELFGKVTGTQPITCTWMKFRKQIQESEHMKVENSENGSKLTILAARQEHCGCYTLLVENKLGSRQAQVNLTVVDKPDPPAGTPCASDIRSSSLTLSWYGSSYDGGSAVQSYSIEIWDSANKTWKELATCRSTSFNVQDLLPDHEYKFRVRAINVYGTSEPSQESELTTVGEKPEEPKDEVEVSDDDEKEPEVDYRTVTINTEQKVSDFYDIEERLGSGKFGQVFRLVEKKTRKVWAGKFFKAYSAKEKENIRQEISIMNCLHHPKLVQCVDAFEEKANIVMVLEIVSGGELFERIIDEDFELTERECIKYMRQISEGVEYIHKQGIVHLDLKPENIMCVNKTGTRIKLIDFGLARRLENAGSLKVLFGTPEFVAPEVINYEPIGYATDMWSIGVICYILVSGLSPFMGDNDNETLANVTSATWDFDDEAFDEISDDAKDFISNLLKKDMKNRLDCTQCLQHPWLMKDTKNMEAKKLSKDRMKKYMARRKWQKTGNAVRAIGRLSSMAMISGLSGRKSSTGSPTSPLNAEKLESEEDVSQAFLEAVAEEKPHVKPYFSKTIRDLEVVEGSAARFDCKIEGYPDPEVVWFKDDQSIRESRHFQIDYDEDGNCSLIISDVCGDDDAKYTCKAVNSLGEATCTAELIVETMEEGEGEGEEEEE
PLK1 (human), sequence (P53350 whole entry, looked up): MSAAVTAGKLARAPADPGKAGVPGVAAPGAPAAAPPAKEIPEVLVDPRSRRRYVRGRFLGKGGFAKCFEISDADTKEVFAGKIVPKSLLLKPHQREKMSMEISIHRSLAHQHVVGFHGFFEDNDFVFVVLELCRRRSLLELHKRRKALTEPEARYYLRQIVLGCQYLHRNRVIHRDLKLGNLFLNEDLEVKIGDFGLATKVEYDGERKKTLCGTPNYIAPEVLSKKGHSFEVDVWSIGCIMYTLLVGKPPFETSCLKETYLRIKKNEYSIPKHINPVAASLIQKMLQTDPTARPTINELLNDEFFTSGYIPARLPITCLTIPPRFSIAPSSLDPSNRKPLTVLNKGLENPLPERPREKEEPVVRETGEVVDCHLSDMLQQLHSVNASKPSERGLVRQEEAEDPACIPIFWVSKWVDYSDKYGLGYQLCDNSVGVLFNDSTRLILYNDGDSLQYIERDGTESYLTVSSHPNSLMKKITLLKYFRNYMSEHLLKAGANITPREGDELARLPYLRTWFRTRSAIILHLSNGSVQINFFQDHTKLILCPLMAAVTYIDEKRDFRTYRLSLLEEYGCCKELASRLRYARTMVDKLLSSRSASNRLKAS
PLK3 (human), sequence (Q9H4B4 whole entry, looked up): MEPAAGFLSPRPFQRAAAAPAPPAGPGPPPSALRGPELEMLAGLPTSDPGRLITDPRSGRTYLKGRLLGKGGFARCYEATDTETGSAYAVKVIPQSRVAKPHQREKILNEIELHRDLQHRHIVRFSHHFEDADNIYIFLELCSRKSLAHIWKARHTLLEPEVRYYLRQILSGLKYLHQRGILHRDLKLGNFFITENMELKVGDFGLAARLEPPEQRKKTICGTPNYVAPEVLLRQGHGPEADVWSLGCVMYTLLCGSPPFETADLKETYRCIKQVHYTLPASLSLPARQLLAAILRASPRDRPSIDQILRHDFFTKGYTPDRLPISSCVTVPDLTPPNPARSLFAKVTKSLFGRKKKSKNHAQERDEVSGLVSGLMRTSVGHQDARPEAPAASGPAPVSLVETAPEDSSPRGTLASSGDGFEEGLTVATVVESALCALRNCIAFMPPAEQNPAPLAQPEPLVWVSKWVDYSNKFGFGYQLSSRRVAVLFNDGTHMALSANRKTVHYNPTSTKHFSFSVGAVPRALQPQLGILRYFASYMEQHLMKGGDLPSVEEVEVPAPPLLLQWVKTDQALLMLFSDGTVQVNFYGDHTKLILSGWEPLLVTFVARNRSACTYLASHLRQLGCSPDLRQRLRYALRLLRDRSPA
TTK (human), sequence (P33981 whole entry, looked up): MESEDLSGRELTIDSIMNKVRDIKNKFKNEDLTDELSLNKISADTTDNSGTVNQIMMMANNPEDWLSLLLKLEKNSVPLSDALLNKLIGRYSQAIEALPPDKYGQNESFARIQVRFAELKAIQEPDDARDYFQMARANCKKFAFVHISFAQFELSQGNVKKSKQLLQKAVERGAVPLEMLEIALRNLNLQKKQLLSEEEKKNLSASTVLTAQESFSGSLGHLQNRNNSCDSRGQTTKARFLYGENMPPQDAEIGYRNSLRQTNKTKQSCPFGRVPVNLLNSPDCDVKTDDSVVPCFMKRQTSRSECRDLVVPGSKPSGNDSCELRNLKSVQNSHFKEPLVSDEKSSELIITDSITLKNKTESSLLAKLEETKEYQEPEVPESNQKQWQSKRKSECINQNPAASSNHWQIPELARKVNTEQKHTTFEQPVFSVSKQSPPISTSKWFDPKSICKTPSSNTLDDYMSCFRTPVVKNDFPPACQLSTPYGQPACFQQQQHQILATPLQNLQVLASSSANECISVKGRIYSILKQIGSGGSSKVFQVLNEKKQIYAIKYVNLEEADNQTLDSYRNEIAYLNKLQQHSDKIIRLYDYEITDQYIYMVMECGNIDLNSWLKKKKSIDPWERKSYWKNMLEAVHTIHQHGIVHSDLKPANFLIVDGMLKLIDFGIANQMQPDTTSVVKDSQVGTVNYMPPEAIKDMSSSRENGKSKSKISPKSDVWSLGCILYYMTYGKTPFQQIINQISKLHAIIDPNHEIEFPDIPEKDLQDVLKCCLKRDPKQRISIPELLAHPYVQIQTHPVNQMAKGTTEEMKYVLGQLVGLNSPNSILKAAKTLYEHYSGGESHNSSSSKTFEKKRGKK
DAPK2 (human), sequence (Q9UIK4 whole entry, looked up): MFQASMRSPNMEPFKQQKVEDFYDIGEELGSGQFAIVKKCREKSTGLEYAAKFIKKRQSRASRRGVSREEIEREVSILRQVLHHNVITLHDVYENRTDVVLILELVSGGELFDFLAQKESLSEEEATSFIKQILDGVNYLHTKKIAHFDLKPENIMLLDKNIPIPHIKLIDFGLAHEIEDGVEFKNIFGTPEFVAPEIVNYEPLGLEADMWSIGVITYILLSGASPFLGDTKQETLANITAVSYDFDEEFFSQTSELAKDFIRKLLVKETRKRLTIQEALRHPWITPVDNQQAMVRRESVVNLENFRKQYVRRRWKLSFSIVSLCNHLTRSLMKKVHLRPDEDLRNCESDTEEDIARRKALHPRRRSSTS

The term Kd denotes the constant that tells how readily two partners part at equilibrium. The term IC50 denotes the concentration that inhibits the measured activity by half. Take `COc1cc(N2CCC(O)CC2)ccc1Nc1ncc2c(n1)N(C1CCCC1)CCC(=O)N2C`: the kinase still bound, per cent of control was found to be 6.8% on PTK2 (human); 28% in experiment [1]; 26% at TNK1 (human); 18% at PTK2B (human); 8.3% on PLK4 (human); 31% at DAPK2 (human). Further, the kinase still bound, per cent of control in experiment [2] is 33%; at PLK1 (human) it was 3%; on TTK (human) [3] it was 3.2%; at GAK (human), 1.8%; in experiment [4], 29%; at MYLK (human), 25%. Besides, the kinase still bound, per cent of control was 22% in experiment [5], 32% in experiment [6], 11% on STK33 (human) and 0% at PLK3 (human). For the same compound, the Kd on TTK (human) [3] was found to be 28.4 nM. The same compound yielded an IC50 on TTK (human) [7] of 342 nM.

Take `COc1cc(N2CCC(N3CCN(C)CC3)CC2)ccc1Nc1ncc2c(n1)N1CCCC1CC(=O)N2C` (stereo not drawn): the kinase still bound, per cent of control on DCLK2 (human) was 25%; on PRKD1 (human), 19%; at CHEK1 (human) it was 29%; on PLK4 (human), 26%; on PLK1 (human) it was 1.8%; on TTK (human) [3], 2.4%. In addition, the kinase still bound, per cent of control on RPS6KA1 KD2 (human) worked out at 28%; at GAK (human), 2.6%; at RPS6KA2 KD2 (human), 13%; on RPS6KA4 KD2 (human), 30%; in experiment [8], 32%; on DCLK1 (human), 0.65%. The kinase still bound, per cent of control stood at 24% at MYLK (human); 23% on PRKD2 (human); 17% at RPS6KA6 KD2 (human); 7% at STK33 (human); 0.95% on PLK3 (human).

On to `COc1cc(N2CCN(C)CC2)ccc1Nc1ncc2c(n1)N(C1CCCC1)C(C)CC(=O)N2C` (stereo not drawn), for which the kinase still bound, per cent of control at DCLK2 (human) was determined as 4.5%; on PTK2 (human), 0.95%; on PRKD3 (human), 14%; on ULK1 (human), 19%; at CAMKK2 (human) it was 24%; on PRKD1 (human) it was 24%. The kinase still bound, per cent of control on ULK2 (human) stood at 1.3%; at PTK2B (human), 4.6%; on PLK1 (human) it was 9%; on MINK1 (human) it was 31%; on FER (human), 25%; on TTK (human) [3], 1.4%. The kinase still bound, per cent of control at INSRR (human) came to 33%; at SLK (human), 3.6%; at GAK (human), 1.2%; on RPS6KA2 KD2 (human) it was 12%; at DCLK1 (human), 1.4%; on MYLK (human), 7.6%. Further, the kinase still bound, per cent of control on PRKD2 (human) worked out at 29%; on ALK (human) it was 6.6%; at RPS6KA6 KD2 (human), 16%; at STK33 (human) it was 5.4%; on PLK3 (human) it was 20%.
